Each structure is given as a SMILES string. Calls of active or inactive are those of the source. No cut-off for these calls is given here.

In series [1] the target is T1, Human immunodeficiency virus type 1 integrase (Human immunodeficiency virus 1, UniProt Q7ZJM1). The series can be described thus: Inhibition of HIV1 integrase strand transfer activity by gel-based assay.
The target in series [2] is T1, Human immunodeficiency virus type 1 integrase. Kind of series: Inhibition of HIV1 integrase 3'-processing activity by gel-based assays.
For series [3], the system named is Human immunodeficiency virus 1. Kind of series: Antiviral activity against HIV1 3B infected in human HeLa cells expressing CD4-LTR-beta-gal assessed as inhibition of viral replication after 3 days by reporter gene assay. The following applies: Human immunodeficiency virus 1, 3B, 72 h. The format is functional, organism-based.
The next series relates to HeLa. Kind of series: Cytotoxicity against human HeLa cells expressing CD4-LTR-beta-gal after 24 hrs by ATPlite assay. The format is cell-based.
The next series can be described thus: in vitro. The following applies: human, HeLa cells expressing CD4-LTR-beta-gal.
In series [4] the target is Human immunodeficiency virus type 1 reverse transcriptase (Human immunodeficiency virus 1, UniProt Q72547). The series can be described thus: Inhibition of HIV1 RNase H function of recombinant reverse transcriptase using an 18-nt 3'-fluorescein-labeled RNA annealed to complementary 18-nt 5'-dabsyl-labeled DNA as substrate after 10 mins by fluorescence spectrometer analysis.

The target in series [5] is Human immunodeficiency virus type 1 reverse transcriptase (Human immunodeficiency virus 1) (UniProt Q72547). Kind of series: Inhibition of HIV1 polymerase function of reverse transcriptase up to 40 uM.

T1 sequence (Q7ZJM1 whole entry): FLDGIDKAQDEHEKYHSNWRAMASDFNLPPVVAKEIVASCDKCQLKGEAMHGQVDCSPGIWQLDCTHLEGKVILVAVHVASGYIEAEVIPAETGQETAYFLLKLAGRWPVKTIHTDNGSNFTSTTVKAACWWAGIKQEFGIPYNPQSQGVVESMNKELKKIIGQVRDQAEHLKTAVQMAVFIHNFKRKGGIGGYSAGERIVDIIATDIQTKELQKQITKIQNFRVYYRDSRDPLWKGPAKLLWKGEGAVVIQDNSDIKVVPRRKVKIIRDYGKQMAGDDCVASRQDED
Description for in vitro: Selectivity index, ratio of CC50 for human HeLa cells expressing CD4-LTR-beta-gal to EC50 for HIV1 3B

For the compound `CCOC(=O)/C(O)=C/C(=O)c1cn(Cc2ccc(F)cc2)c2cc(N(C)C)ccc2c1=O`, the concentration for half-maximal inhibition (IC50) in series [1] turned out to be 2.9 µM; in series [2], 41 µM. Further, the EC50 in series [3] is over 50 µM.
Consider `CCOC(=O)/C(O)=C/C(=O)c1cn(Cc2ccc(F)cc2)c2cc(N3CCNCC3)ccc2c1=O`, for which the 50% inhibitory concentration (IC50) in series [1] is 24 µM; in series [2], over 333 µM. In series [3], the concentration giving a half-maximal response (EC50) amounted to 20.9 µM. This compound displayed a CC50 with HeLa of over 50 µM. In the series “in vitro”, the selectivity ratio was over 2.4.
`CCOC(=O)/C(O)=C/C(=O)c1cn(Cc2ccc(F)cc2)c2cc(N3CCCC3)ccc2c1=O` registered a half-maximal cytotoxic concentration (CC50) with HeLa of over 50 µM.
Turning to `O=C(O)/C(O)=C/C(=O)c1cn(Cc2ccc(F)cc2)c2cc(N3CCN(CCCCl)CC3)ccc2c1=O`, the concentration for half-maximal inhibition (IC50) in series [1] stood at 0.05 µM; in series [2] it was 4.6 µM; in series [4] it was 5.7 µM. Further, in series [5], the inhibition result was “inactive”. Moreover, the EC50 in series [3] is over 50 µM.
In the series on HeLa, `CC(=O)N1CCN(c2ccc3c(=O)c(C(=O)/C=C(\O)C(=O)O)cn(Cc4ccc(F)cc4)c3c2)CC1` came in with a CC50 of over 50 µM.
Turning to `CCOC(=O)/C(O)=C/C(=O)c1cn(Cc2ccc(F)cc2)c2cc(N3CCN(CC)CC3)ccc2c1=O`, the CC50 in the series on HeLa is over 50 µM.
Regarding `CN(C)c1ccc2c(=O)c(C(=O)/C=C(\O)C(=O)O)cn(Cc3ccc(F)cc3)c2c1`, the EC50 in series [3] is over 50 µM.
Consider `O=C(O)/C(O)=C/C(=O)c1cn(Cc2ccc(F)cc2)c2cc(N3CCOCC3)ccc2c1=O`, for which the half-maximal inhibitory concentration (IC50) in series [1] was 0.08 µM; in series [2], 13 µM; in series [4], 6.8 µM. The inhibition result in series [5] was “inactive”. The EC50 in series [3] was determined as 26.3 µM. The same compound registered a CC50 with HeLa of over 50 µM. The selectivity ratio in “in vitro” is over 1.9.
Regarding `O=C(O)/C(O)=C/C(=O)c1cn(Cc2ccc(F)cc2)c2cc(N3CCSCC3)ccc2c1=O`, the concentration for half-maximal inhibition (IC50) in series [1] was 0.36 µM; in series [2] it was 30 µM. Further, in series [3], the half-maximal effective concentration (EC50) is over 50 µM.
Regarding `CCOC(=O)/C(O)=C/C(=O)c1cn(Cc2ccc(F)cc2)c2cc(N3CCN(CCCCl)CC3)ccc2c1=O`, the IC50 turned out to be 1.3 µM in series [1] and 102 µM in series [2]. The EC50 in series [3] was determined as 13.2 µM. Also, the CC50 with HeLa was over 50 µM. Besides, in “in vitro”, the selectivity ratio was over 3.7.
`O=C(O)/C(O)=C/C(=O)c1cn(Cc2ccc(F)cc2)c2cc(N3CCNCC3)ccc2c1=O`: in series [3], the EC50 was over 50 µM.
For the compound `CCN1CCN(c2ccc3c(=O)c(C(=O)/C=C(\O)C(=O)O)cn(Cc4ccc(F)cc4)c3c2)CC1`, the half-inhibitory concentration (IC50) in series [1] is 0.21 µM; in series [2], 23 µM. In addition, the EC50 in series [3] is over 50 µM.
As to `Cc1nnc(C(=O)NC(C)(C)c2nc(C(=O)NCc3ccc(F)cc3)c(O)c(=O)n2C)o1`, the 50% cytotoxic concentration (CC50) in the series with HeLa is over 50 µM.
As for `CCOC(=O)/C(O)=C/C(=O)c1cn(Cc2ccc(F)cc2)c2cc(N3CCN(C(C)=O)CC3)ccc2c1=O`, the concentration for half-maximal inhibition (IC50) in series [1] amounted to 0.17 µM; in series [2], 17 µM. In addition, in series [3], the 50% effective concentration (EC50) is over 50 µM.
As to `O=C(O)/C(O)=C/C(=O)c1cn(Cc2ccc(F)cc2)c2cc(N3CCCC3)ccc2c1=O`, in series [4], the half-maximal inhibitory concentration (IC50) stood at 5.1 µM. In addition, the inhibition entry in series [5] is “inactive”. In the series on HeLa, this compound gave a CC50 of over 50 µM.
On to `CN1CCN(c2ccc3c(=O)c(C(=O)/C=C(\O)C(=O)O)cn(Cc4ccc(F)cc4)c3c2)CC1`, for which the results for the IC50 in series [1] and in series [2] were 0.1 µM and 8.5 µM, respectively. Besides, in series [3], the half-maximal effective concentration (EC50) was over 50 µM.
In turn, `CCOC(=O)/C(O)=C/C(=O)c1cn(Cc2ccc(F)cc2)c2cc(N3CCN(C)CC3)ccc2c1=O` gave a CC50 in the series on HeLa of over 50 µM.
Regarding `CCOC(=O)/C(O)=C/C(=O)c1cn(Cc2ccc(F)cc2)c2cc(N3CCOCC3)ccc2c1=O`, the half-maximal inhibitory concentration (IC50) in series [1] is 2.1 µM; in series [2], over 111 µM. Moreover, the half-maximal effective concentration (EC50) in series [3] turned out to be 16.2 µM. This compound also displayed a CC50 in the series on HeLa of over 50 µM. The selectivity ratio in the series “in vitro” was over 3.
Consider `COc1cc2c(cc1Cc1cccc(Cl)c1F)c(=O)c(C(=O)O)cn2[C@H](CO)C(C)C`, for which the half-maximal effective concentration (EC50) in series [3] came out at 0.0142 µM. Besides, the CC50 in the series on HeLa was over 50 µM.

These data come from ChEMBL document CHEMBL3232785, “Basic quinolinonyl diketo acid derivatives as inhibitors of HIV integrase and their activity against RNase H function of reverse transcriptase” (J Med Chem, 2014).
